Several values for one entry are separate records, joined by “and”; a condition that tells them apart may be missing. Identical values can stand only once.
Experiments:
T47D = assay: cells; assay type: cell-based; conditions: Homo sapiens, ER+ BC, dominant CDK4, read-out: IC50, mean ± SD
REH = assay: cells; assay type: cell-based; conditions: Homo sapiens, ALL, dominant CDK6, read-out: IC50, mean ± SD
NCI-H1975 [1] = assay: cells; assay type: cell-based; conditions: Homo sapiens, NCI-H1975, read-out: Percent inhibition
[2] = assay type: in vivo
HBCx-1 = assay type: in vivo; conditions: HBCx-1, Breast, HER2High, Rb absent; 125 mg/kg bid × 21
HBCx-3 = assay type: in vivo; conditions: HBCx-3, Breast, TNBC, Rb present; 125 mg/kg bid × 21
HBCx-15 = assay type: in vivo; conditions: HBCx-15, Breast, TNBC, Rb absent; 125 mg/kg bid × 21
HBRX1004 = assay type: in vivo; conditions: HBRX1004, Breast, TNBC, Rb present; 250 mg/kg qd
HCOX1290 = assay type: in vivo; conditions: HCOX1290, Colorectal, Rb present; 250 mg/kg qd
HPAX1199 = assay type: in vivo; conditions: HPAX1199, Pancreatic, Rb present; 250 mg/kg qd
KELLY = assay: cells; assay type: cell-based; conditions: 72 h
SK-N-SH = assay: cells; assay type: cell-based; conditions: Homo sapiens, 72 h
NB1 = assay: cells; assay type: cell-based; conditions: Homo sapiens, NB1, 72 h
T-47d = assay: cells; assay type: cell-based; conditions: Homo sapiens, T47D, 72 h
MDA-MB-415 = assay: cells; assay type: cell-based; conditions: Homo sapiens, MDA-MB-415, 72 h
SNU-761 = assay: cells; assay type: cell-based; conditions: SNU-761, 72 h
MGH049 = assay: cells; assay type: cell-based; conditions: MGH049, 72 h
NCI-H1975 [3] = assay: cells; assay type: cell-based; conditions: Homo sapiens, NCI-H1975, 72 h
HCC-827 [4] = assay: cells; assay type: cell-based; conditions: Homo sapiens, HCC827; HCC-827, 72 h
PC-14 = assay: cells; assay type: cell-based; conditions: Homo sapiens, PC-14, 72 h
NCI-H2030 [5] = assay: cells; assay type: cell-based; conditions: Homo sapiens, NCI-H2030, 72 h
NCI-H3255 = assay: cells; assay type: cell-based; conditions: Homo sapiens, NCI-H3255, 72 h
LnCAP [6] = assay: cells; assay type: cell-based; conditions: Homo sapiens, 72 h
A-375 = assay: cells; assay type: cell-based; conditions: Homo sapiens, A-375, 72 h
SK-MEL-2 = assay: cells; assay type: cell-based; conditions: Homo sapiens, SK-MEL-2, 72 h
A2058 = assay: cells; assay type: cell-based; conditions: Homo sapiens, A2058, 72 h
WM-115 = assay: cells; assay type: cell-based; conditions: Homo sapiens, WM-115, 72 h
BT-483 = assay: cells; assay type: cell-based; conditions: Homo sapiens, BT-483, 72 h
SNU-387 = assay: cells; assay type: cell-based; conditions: Homo sapiens, SNU-387, 72 h
NCI-H460 = assay: cells; assay type: cell-based; conditions: Homo sapiens, NCI-H460, 72 h
HCC-4006 = assay: cells; assay type: cell-based; conditions: Homo sapiens, HCC4006; HCC-4006, 72 h
HCC-827 [7] = assay: cells; assay type: cell-based; conditions: Homo sapiens, HCC827; HCC-827, 72 h; remark: listed apart in the source
NCI-H2030 [8] = assay: cells; assay type: cell-based; conditions: Homo sapiens, NCI-H2030, 72 h; remark: listed apart in the source
TE-8 = assay: cells; assay type: cell-based; conditions: Homo sapiens, TE-8, 72 h
LnCAP [9] = assay: cells; assay type: cell-based; conditions: Homo sapiens, 72 h; remark: listed apart in the source
VCAP = assay: cells; assay type: cell-based; conditions: Homo sapiens, 72 h
MELJUSO = assay: cells; assay type: cell-based; conditions: Homo sapiens, MEL-JUSO, 72 h
SK-MEL-28 = assay: cells; assay type: cell-based; conditions: Homo sapiens, SK-MEL-28, 72 h
hs944T = assay: cells; assay type: cell-based; conditions: 72 h
UACC-62 = assay: cells; assay type: cell-based; conditions: Homo sapiens, UACC-62, 72 h
CDK9/cyclin T1 = conditions: cited from earlier work
[10] = tested on: JeKo-1 mantle cell lymphoma cells; set-up: method as in Brain C et al, manuscript in preparation; conditions: RB1-proficient; ref Brain C et al, manuscript in preparation; cited from earlier work

**Q.** With CC(=O)c1c(C)c2cnc(Nc3ccc(N4CCNCC4)cn3)nc2n(C2CCCC2)c1=O [Palbociclib, reference compound] as the molecule, how does the IC50 (T47D) read?
**A.** Its IC50 is 66 ± 19 µM.

**Q.** What about the IC50 (REH) of the same molecule?
**A.** Its IC50 is 60 ± 17 µM.

**Q.** With CN(C)C(=O)c1cc2cnc(Nc3ccc(N4CCNCC4)cn3)nc2n1C1CCCC1 [Ribociclib, 7-cyclopentyl-2-(5-piperazin-1-yl-pyridin-2-ylamino)-7H-pyrrolo[2,3-d]pyrimidine-6-carboxylic acid dimethylamide] as the molecule, how does the inhibition at 0.08 µM (NCI-H1975 [1]) read?
**A.** The inhibition at 0.08 µM was 14%.

**Q.** And the inhibition at 1.25 µM (NCI-H1975 [1])?
**A.** The inhibition at 1.25 µM was 42%.

**Q.** And the inhibition at 5 µM (NCI-H1975 [1])?
**A.** Its inhibition at 5 µM is 54%.

**Q.** And the inhibition at 10 µM (NCI-H1975 [1])?
**A.** The inhibition at 10 µM was 61%.

**Q.** And the inhibition at […] (NCI-H1975 [1])?
**A.** Its inhibition at […] is 20% and 28% and 37% and 49%.

**Q.** And the body weight loss ([2]; 150 mg/kg)?
**A.** The body weight loss was “only minimal transient body weight loss”.

**Q.** And the tolerability ([2]; all ribociclib doses, no significant body weight loss)?
**A.** Its tolerability is “well tolerated”.

**Q.** And the T/C (HBCx-1)?
**A.** The T/C was 80.

**Q.** What about the T/C (HBCx-3) of the same molecule?
**A.** The T/C was 45.

**Q.** And the T/C (HBCx-15)?
**A.** The T/C was 108.

**Q.** What about the T/C (HBRX1004) of the same molecule?
**A.** The T/C was 10.

**Q.** And the T/C (HCOX1290)?
**A.** Its T/C is 22.

**Q.** What about the T/C (HPAX1199) of the same molecule?
**A.** The T/C was 18.

**Q.** And the IC50 (KELLY)?
**A.** Its IC50 is 0.27 µM.

**Q.** And the IC50 (SK-N-SH)?
**A.** The IC50 was 0.27 µM.

**Q.** And the IC50 (NB1)?
**A.** The IC50 was 0.37 µM.

**Q.** And the IC50 (T-47d)?
**A.** The IC50 was 0.25 µM.

**Q.** And the IC50 (MDA-MB-415)?
**A.** Its IC50 is 0.98 µM.

**Q.** What about the IC50 (SNU-761) of the same molecule?
**A.** The IC50 was 0.67 µM.

**Q.** What about the IC50 (MGH049) of the same molecule?
**A.** The IC50 was 0.54 µM.

**Q.** What about the IC50 (NCI-H1975 [3]) of the same molecule?
**A.** Its IC50 is 3.53 µM.

**Q.** And the IC50 (HCC-827 [4])?
**A.** The IC50 was 6.12 µM.

**Q.** And the IC50 (PC-14)?
**A.** Its IC50 is 6.98 µM.

**Q.** And the IC50 (NCI-H2030 [5])?
**A.** Its IC50 is 8.33 µM.

**Q.** What about the IC50 (NCI-H3255) of the same molecule?
**A.** Its IC50 is greater than 10 µM.

**Q.** And the IC50 (LnCAP [6])?
**A.** Its IC50 is 0.18 µM.

**Q.** What about the IC50 (A-375) of the same molecule?
**A.** Its IC50 is 2.68 µM.

**Q.** And the IC50 (SK-MEL-2)?
**A.** Its IC50 is 4.81 µM.

**Q.** What about the IC50 (A2058) of the same molecule?
**A.** The IC50 was greater than 10 µM.

**Q.** And the IC50 (WM-115)?
**A.** The IC50 was greater than 10 µM.

**Q.** What about the IC50 (BT-483) of the same molecule?
**A.** Its IC50 is greater than 10 µM.

**Q.** What about the IC50 (SNU-387) of the same molecule?
**A.** The IC50 was greater than 10 µM.

**Q.** What about the IC50 (NCI-H460) of the same molecule?
**A.** Its IC50 is greater than 10 µM.

**Q.** What about the IC50 (HCC-4006) of the same molecule?
**A.** The IC50 was greater than 10 µM.

**Q.** What about the IC50 (HCC-827 [7]) of the same molecule?
**A.** The IC50 was greater than 10 µM.

**Q.** And the IC50 (NCI-H2030 [8])?
**A.** Its IC50 is greater than 10 µM.

**Q.** What about the IC50 (TE-8) of the same molecule?
**A.** Its IC50 is greater than 10 µM.

**Q.** What about the IC50 (LnCAP [9]) of the same molecule?
**A.** The IC50 was 1 µM.

**Q.** And the IC50 (VCAP)?
**A.** Its IC50 is greater than 10 µM.

**Q.** And the IC50 (MELJUSO)?
**A.** The IC50 was greater than 10 µM.

**Q.** And the IC50 (SK-MEL-28)?
**A.** Its IC50 is greater than 10 µM.

**Q.** What about the IC50 (hs944T) of the same molecule?
**A.** Its IC50 is greater than 10 µM.

**Q.** And the IC50 (UACC-62)?
**A.** Its IC50 is greater than 10 µM.

**Q.** And the “activity against CDK9/cyclin T1” value (CDK9/cyclin T1)?
**A.** Its value is “far less active”.

**Q.** What about the “effect on pRb and cell cycle” value [10] of the same molecule?
**A.** The value was “dephosphorylation of phosphorylated Rb (pRb) and concomitant G1 cell-cycle arrest”.

From article PMC6219668 (Oncotarget, 2018)
